Our source for the GI50 and TGI values is PubChem BioAssay (NCI).

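Cultured in 96-well plates, cells were exposed to test compound for 48 hours across five concentrations. GI50 is the concentration that inhibits growth by half. At the TGI there is no net growth.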

Common to all, as to assay: DTP human tumour cell line panel, 48 h
In assay [1] the test system is SN12C renal.
Assay [2] has as its system CCRF-CEM leukemia.
The subject of assay [3] is A549 NSCLC.
Assay [4] has as its system IGROV1 ovarian.
Assay [5] concerns MDA-MB-435.
The subject of assay [6] is COLO 205 colon.
The subject of assay [7] is SF-539 CNS.
Assay [8] concerns SF-295 CNS.
The subject of assay [9] is NCI-H23 lung.
For assay [10], the system named is UACC-257 melanoma.

For `COC(=O)C1=Nc2ccc(F)cc2/C1=C/c1sc(=S)[nH]c1O`, the GI50 is 0.354 µM in assay [1]; 0.133 µM in [2]; 0.254 µM in assay [3]; 0.275 µM in assay [4]; 0.0233 µM in [5]; 0.311 µM in assay [6]. In addition, the GI50 in [7] was 0.0743 µM; in [8] it was 0.125 µM; in assay [9], 0.408 µM; in [10], 6.13 µM. The TGI was more than 26.3 µM in assay [1]; more than 100 µM in assay [2]; more than 100 µM in [3]; 14.9 µM in assay [4]; 0.0605 µM in [5]; 1.24 µM in assay [6]. The TGI in [7] is 0.751 µM; in assay [8] it was 13.2 µM; in [9], more than 100 µM; in assay [10], more than 100 µM.
With `Cc1cc2c(cc1C)[n+](=O)c(C(=O)/C=C/c1ccccc1[N+](=O)[O-])c(C)n2[O-]`, the TGI in assay [1], in assay [2], in assay [3], in assay [4], in assay [5] and in assay [6] was more than 100 µM each time. In addition, the TGI is 47.2 µM in [7], 64.6 µM in assay [8], 63 µM in assay [9] and more than 100 µM in assay [10].
Consider `Cc1ccc(C(=O)N2C/C(=C/c3ccccc3)C(=O)/C(=C/c3ccccc3)C2)cc1`, for which the GI50 in assay [1] is 7.34 µM; in assay [2] it was 2.23 µM; in assay [3], 63.3 µM; in assay [4], 12.8 µM; in assay [5], 1.01 µM; in assay [6], 8.7 µM. Also, the GI50 in [7] was 9.66 µM; in assay [8], 5.36 µM; in assay [9] it was 8.86 µM; in assay [10], 10.1 µM. The TGI was more than 100 µM in assay [1]; more than 100 µM in assay [2]; more than 100 µM in assay [3]; more than 100 µM in assay [4]; 6.41 µM in assay [5]; more than 100 µM in assay [6]. Further, the total growth inhibition concentration (TGI) in [7] was 72.2 µM; in assay [8] it was more than 100 µM; in [9] it was more than 100 µM; in assay [10], more than 100 µM.
As to `C=CC[PH+](c1ccccc1)c1ccccc1.C=CC[PH+](c1ccccc1)c1ccccc1.[Pt+2].[S-]c1ncccn1.[S-]c1ncccn1`, the GI50 in assay [1] was 13.5 µM; in assay [2], 3.17 µM; in assay [3], 26.3 µM; in assay [4] it was 15.1 µM; in [5], 16.3 µM; in [6], 5.24 µM. Also, the GI50 in assay [7] was 21.4 µM; in [8], more than 100 µM; in assay [9] it was 17.9 µM; in assay [10], 11.6 µM. In addition, the TGI in [1] is 48.6 µM; in assay [2] it was more than 100 µM; in [3], more than 100 µM; in assay [4], 43.8 µM; in [5], 33.8 µM; in [6], 26.9 µM. In addition, the concentration for total growth inhibition (TGI) in assay [7] is 52.3 µM; in assay [8] it was more than 100 µM; in [9] it was 59 µM; in [10], 37.2 µM.
`O=C(Nc1cccc(-n2cc(-c3ccncc3)c(-c3ccc(O)c(Cl)c3)n2)c1)Nc1ccc(Cl)c(Cl)c1`: the GI50 in [1] is 2.72 µM; in [2], 1.39 µM; in assay [3] it was 1.54 µM; in assay [4], 2.35 µM; in assay [5], 1.96 µM; in assay [6], 2.5 µM. The GI50 in assay [7] is 1.57 µM; in assay [8], 2.29 µM; in [9], 1.88 µM; in [10] it was 2.02 µM. Moreover, the TGI is more than 100 µM in [1]; 5.73 µM in assay [2]; 7.27 µM in [3]; 6.78 µM in assay [4]; 5.92 µM in assay [5]; 6.23 µM in assay [6]. Besides, the TGI in assay [7] worked out at 4.87 µM; in assay [8] it was 7.27 µM; in [9] it was 6.62 µM; in assay [10], 5.13 µM.
For the molecule `CCc1ccc(C2=NN(c3ccc(S(C)(=O)=O)cc3)C(=O)CC2)cc1`, the GI50 in [1] was 7.34 µM; in assay [2] it was 1.23 µM; in assay [3], 0.913 µM; in assay [4], 2.71 µM; in assay [5], 0.212 µM; in assay [6] it was 1.05 µM. In addition, the GI50 in [7] was 2.3 µM; in [8], 0.904 µM; in assay [9], 1.85 µM; in [10], 1.68 µM. The TGI was more than 100 µM in assay [1]; more than 21.6 µM in assay [2]; more than 100 µM in assay [3]; more than 74.3 µM in [4]; 0.804 µM in [5]; 7.75 µM in assay [6]. For the same molecule, the TGI in assay [7] was 11 µM; in assay [8], 8.54 µM; in [9], more than 24.3 µM; in assay [10], 55.3 µM.

The term GI50 denotes the concentration at which growth is held to half of that of the control. For orientation: TGI means the concentration giving total growth inhibition.
